Source: patent US20250368645A1, “BETA CARBOLINE ANALOGUES AS SELECTIVE AND BIASED KAPPA OPIOID RECEPTORS AGONISTS FOR TREATING VARIOUS ASSOCIATED PATHOPHYSIOLOGICAL CONDITIONS” (COUNCIL OF SCIENTIFIC AND INDUSTRIAL RESEARCH, priority 2022, published 2025)

How the values were obtained:
Type in all cases: cell-based
MOR = MOR (Homo sapiens, UniProt P35372); assay: GloSensor assay at MOR; settings: given as Log IC50 (negative values)
human KOR = human KOR (Homo sapiens, UniProt P41145); assay: GloSensor assay, Gi-mediated cAMP inhibition in HEK-293T cells transfected with human KOR; settings: given as Log IC50 (negative values); agonist activity, inhibition of FSK-stimulated cAMP; read-out: GloSensor Assay (Log IC50) KOR (converted)
Chain of human KOR (P41145 whole entry): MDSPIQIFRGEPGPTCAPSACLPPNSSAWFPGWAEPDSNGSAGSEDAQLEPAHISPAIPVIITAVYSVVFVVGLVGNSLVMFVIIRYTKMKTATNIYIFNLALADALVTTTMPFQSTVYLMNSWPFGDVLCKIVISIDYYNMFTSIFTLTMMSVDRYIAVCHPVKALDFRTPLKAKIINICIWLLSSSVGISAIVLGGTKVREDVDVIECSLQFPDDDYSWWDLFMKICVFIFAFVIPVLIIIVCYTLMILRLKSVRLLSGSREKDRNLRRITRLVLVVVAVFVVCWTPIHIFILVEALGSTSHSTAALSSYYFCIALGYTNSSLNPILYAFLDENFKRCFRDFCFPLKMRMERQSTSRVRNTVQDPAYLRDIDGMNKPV

DOR = DOR (Homo sapiens, UniProt P41143); assay: GloSensor assay at DOR; settings: given as Log IC50 (negative values)
Chain of DOR (P41143 whole entry): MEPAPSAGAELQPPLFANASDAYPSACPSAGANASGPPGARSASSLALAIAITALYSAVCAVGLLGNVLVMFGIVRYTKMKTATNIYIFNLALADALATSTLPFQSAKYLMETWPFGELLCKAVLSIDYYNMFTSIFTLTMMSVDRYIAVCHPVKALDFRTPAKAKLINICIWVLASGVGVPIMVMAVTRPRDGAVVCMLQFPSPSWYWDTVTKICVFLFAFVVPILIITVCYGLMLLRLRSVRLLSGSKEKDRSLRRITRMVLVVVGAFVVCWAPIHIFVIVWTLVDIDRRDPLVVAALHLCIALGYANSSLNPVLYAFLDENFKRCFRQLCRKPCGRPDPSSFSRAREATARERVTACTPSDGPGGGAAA

Chain of MOR (P35372 whole entry): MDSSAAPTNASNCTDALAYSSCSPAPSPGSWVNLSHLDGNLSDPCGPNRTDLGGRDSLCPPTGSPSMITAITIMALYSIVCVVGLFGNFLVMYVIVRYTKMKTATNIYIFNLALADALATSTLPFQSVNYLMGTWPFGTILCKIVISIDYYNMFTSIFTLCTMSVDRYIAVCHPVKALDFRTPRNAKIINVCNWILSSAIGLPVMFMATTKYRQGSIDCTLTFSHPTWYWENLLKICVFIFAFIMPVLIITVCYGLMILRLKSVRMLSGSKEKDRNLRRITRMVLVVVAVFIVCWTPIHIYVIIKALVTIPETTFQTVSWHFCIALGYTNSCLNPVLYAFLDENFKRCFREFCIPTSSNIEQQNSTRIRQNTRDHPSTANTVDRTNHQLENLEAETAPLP

Structure (SMILES) | IC50 (MOR) [µM] | IC50 (human KOR) [µM] | IC50 (DOR) [µM]
COC(=O)c1cc2c3ccccc3[nH]c2c2c(-c3ccc(Br)cc3)n(-c3ccc(Cl)cc3)c[n+]12 [8bbc, 1-(4-Bromophenyl)-2-(4-chlorophenyl)-5-(methoxycarbonyl)-2,11-dihydroimidazo[1′,5′:1,2]pyrido[3,4-b]indol-4-iumchloride] | > 10 | > 10 | > 10
Clc1ccc(-n2c[n+]3c4ccccc4c4c5ccccc5[nH]c4c3c2-c2ccc(Br)cc2)cc1 [12bd, 1-(4-Bromophenyl)-2-(4-chlorophenyl)-2,13-dihydroimidazo[1,5-a]indolo[2,3-c]quinolin-4-ium chloride] | > 10 | > 10 | > 10
Fc1ccc(-n2c[n+]3ccc4c5ccccc5[nH]c4c3c2-c2cccc(F)c2)cc1 [8aid, 1-(3-Fluorophenyl)-2-(4-fluorophenyl)-2,11-dihydroimidazo[1′,5′:1,2]pyrido[3,4-b]indol-4-ium] | > 10 | 0.2 | > 10
COc1ccc(Cn2c[n+]3ccc4c5ccccc5[nH]c4c3c2-c2ccc(Cl)cc2)cc1OC [9abg, 1-(4-Chlorophenyl)-2-(3,4-dimethoxybenzyl)-2,11-dihydroimidazo[1′,5′:1,2]pyrido[3,4-b]indol-4-ium chloride] | > 10 | 0.955 | > 10
Clc1ccc(-c2c3c4[nH]c5ccccc5c4cc[n+]3cn2-c2cccc(Cl)c2)cc1 [8adf, 2-(3-Chlorophenyl)-1-(4-chlorophenyl)-2,11-dihydroimidazo[1′,5′:1,2]pyrido[3,4-b]indol-4-ium chloride] | > 10 | > 10 | > 10
Clc1cccc(-n2c[n+]3ccc4c5ccccc5[nH]c4c3c2-c2ccccc2)c1 [8aaf, 2-(3-Chlorophenyl)-1-phenyl-2,11-dihydroimidazo[1′,5′:1,2]pyrido[3,4-b]indol-4-ium chloride] | > 10 | > 10 | > 10
COc1ccc(Cn2c[n+]3ccc4c5ccccc5[nH]c4c3c2-c2ccc(Br)cc2)cc1 [9aae] | > 10 | 3.31 | > 10
Fc1ccc(Cn2c[n+]3ccc4c5ccccc5[nH]c4c3c2-c2ccc(Br)cc2)cc1 [9aab, 1-(4-Bromophenyl)-2-(4-fluorobenzyl)-2,11-dihydroimidazo[1′,5′:1,2]pyrido[3,4-b]indol-4-ium chloride] | > 10 | 0.263 | > 10
Clc1ccccc1-c1c2c3[nH]c4ccccc4c3cc[n+]2cn1-c1ccccc1 [8aea, 1-(2-Chlorophenyl)-2-phenyl-2,11-dihydroimidazo[1′,5′:1,2]pyrido[3,4-b]indol-4-ium chloride] | > 10 | > 10 | > 10
Fc1ccc(-c2c3c4[nH]c5ccccc5c4cc[n+]3cn2-c2ccccc2)cc1 [8aga, 1-(4-Fluorophenyl)-2-phenyl-2,11-dihydroimidazo[1′,5′:1,2]pyrido[3,4-b]indol-4-ium chloride] | > 10 | > 10 | > 10
Clc1ccc(-n2c[n+]3ccc4c5ccccc5[nH]c4c3c2-c2ccccc2)cc1 [8aac, 2-(4-Chlorophenyl)-1-phenyl-2,11-dihydroimidazo[1′,5′:1,2]pyrido[3,4-b]indol-4-ium chloride] | > 10 | 0.126 | > 10
Clc1ccc(-c2c3c4[nH]c5ccccc5c4cc[n+]3cn2Cc2ccsc2)cc1 [9acj, 1-(4-Chlorophenyl)-2-(thiophen-3-ylmethyl)-2,11-dihydroimidazo[1′,5′:1,2]pyrido[3,4-b]indol-4-ium chloride] | > 10 | > 10 | > 10
Fc1ccccc1-n1c[n+]2ccc3c4ccccc4[nH]c3c2c1-c1ccc(Br)cc1 [8abk, 1-(4-Bromophenyl)-2-(2-fluorophenyl)-2,11-dihydroimidazo[1′,5′:1,2]pyrido[3,4-b]indol-4-ium chloride] | > 10 | 0.0794 | > 10
COc1ccc(Cn2c[n+]3ccc4c5ccccc5[nH]c4c3c2-c2ccc(Cl)cc2)cc1 [9abe, 1-(4-Chlorophenyl)-2-(4-methoxybenzyl)-2,11-dihydrolmidazo[1′,5′:1,2]pyrido[3,4-b]indol-4-ium chloride] | > 10 | 0.0759 | > 10
Brc1ccc(-c2c3c4[nH]c5ccccc5c4cc[n+]3cn2Cc2ccccc2)cc1 [9aaa, 2-Benzyl-1-(4-bromophenyl)-2,11-dihydroimidazo[1′,5′:1,2]pyrido[3,4-b]indol-4-ium chloride] | > 10 | > 10 | > 10
Brc1ccc(-c2c3c4[nH]c5ccccc5c4cc[n+]3cn2-c2ccc(Br)cc2)cc1 [8abb, 1,2-Bis(4-bromophenyl)-2,11-dihydroimidazo[1′,5′:1,2]pyrido[3,4-b]indol-4-ium chloride] | > 10 | > 10 | > 10

Structure (SMILES) | IC50 (MOR) [µM] | IC50 (human KOR) [µM] | IC50 (DOR) [µM]
Brc1ccc(-n2c[n+]3ccc4c5ccccc5[nH]c4c3c2-c2ccccc2)cc1 [8aab, 2-(4-Bromophenyl)-1-phenyl-2,11-dihydroimidazo[1′,5′:1,2]pyrido[3,4-b]indol-4-ium chloride] | > 10 | 0.0661 | > 10
O=[N+]([O-])c1ccc(-c2c3c4[nH]c5ccccc5c4cc[n+]3cn2-c2ccc(F)cc2)cc1 [8ald, 2-(4-Fluorophenyl)-1-(4-nitrophenyl)-2,11-dihydrolmidazo[1′,5′:1,2]pyrido[3,4-b]indol-4-ium chloride] | > 10 | > 10 | > 10
Fc1ccc(-n2c[n+]3ccc4c5ccccc5[nH]c4c3c2-c2ccc(Br)cc2)c(Cl)c1 [8abl, 1-(4-Bromophenyl)-2-(2-chloro-4-fluorophenyl)-2,11-dihydrolmidazo[1′,5′:1,2]pyrido[3,4-b]indol-4-ium chloride] | > 10 | > 10 | > 10
Clc1cccc(-n2c[n+]3ccc4c5ccccc5[nH]c4c3c2-c2ccc(Br)cc2)c1 [8abf, 1-(4-Bromophenyl)-2-(3-chlorophenyl)-2,11-dihydroimidazo[1′,5′:1,2]pyrido[3,4-b]indol-4-ium chloride] | > 10 | > 10 | > 10
Clc1ccccc1-c1c2c3[nH]c4ccccc4c3cc[n+]2cn1-c1ccc(Br)cc1 [8aeb, 2-(4-Bromophenyl)-1-(2-chlorophenyl)-2,11-dihydroimidazo[1′,5′:1,2]pyrido[3,4-b]indol-4-ium chloride] | 1.26 | > 10 | 2
Cn1c2ccccc2c2cc[n+]3cn(-c4ccc(F)cc4)c(-c4ccc(Br)cc4)c3c21 [8dbd, 1-(4-Bromophenyl)-2-(4-fluorophenyl)-11-methyl-2,11-dihydroimidazo[1′,5′:1,2]pyrido[3,4-b]indol-4-iumchloride] | > 10 | > 10 | > 10
Clc1ccccc1-n1c[n+]2ccc3c4ccccc4[nH]c3c2c1-c1ccc(Br)cc1 [8abj, 1-(4-Bromophenyl)-2-(2-chlorophenyl)-2,11-dihydroimidazo[1′,5′:1,2]pyrido[3,4-b]indol-4-ium] | 0.251 | 0.251 | > 10
Fc1cccc(-n2c[n+]3ccc4c5ccccc5[nH]c4c3c2-c2ccc(Br)cc2)c1 [8abi, 1-(4-Bromophenyl)-2-(3-fluorophenyl)-2,11-dihydroimidazo[1′,5′:1,2]pyrido[3,4-b]indol-4-ium chloride] | > 10 | > 10 | > 10
Fc1ccc(-n2c[n+]3ccc4c5ccccc5[nH]c4c3c2-c2cccc(Cl)c2)cc1 [8afd, 1-(3-Chlorophenyl)-2-(4-fluorophenyl)-2,11-dihydroimidazo[1′,5′:1,2]pyrido[3,4-b]indol-4-ium chloride] | > 10 | 1.82 | > 10
Clc1cccc(-n2c[n+]3ccc4c5ccccc5[nH]c4c3c2-c2ccccc2Br)c1 [8acf, 1-(2-Bromophenyl)-2-(3-chlorophenyl)-2,11-dihydroimidazo[1′,5′:1,2]pyrido[3,4-b]indol-4-ium chloride] | > 10 | 0.0631 | > 10
COc1ccc(-n2c[n+]3ccc4c5ccccc5[nH]c4c3c2-c2ccc(Cl)cc2)cc1 [8adg, 1-(4-Chlorophenyl)-2-(4-methoxyphenyl)-2,11-dihydroimidazo[1′,5′:1,2]pyrido[3,4-b]indol-4-ium chloride] | > 10 | 0.794 | > 10
COc1ccc(Cn2c[n+]3ccc4c5ccccc5[nH]c4c3c2-c2ccc(Br)cc2)cc1OC [9aag, 1-(4-Bromophenyl)-2-(3,4-dimethoxybenzyl)-2,11-dihydroimidazo[1′,5′:1,2]pyrido[3,4-b]indol-4-ium chloride] | > 10 | 0.166 | > 10
Fc1ccc(-n2c[n+]3c4ccccc4c4c5ccccc5[nH]c4c3c2-c2ccccc2)cc1 [12ad, 2-(4-Fluorophenyl)-1-phenyl-2,13-dihydroimidazo[1,5-a]indolo[2,3-c]quinolin-4-ium chloride] | > 10 | > 10 | > 10
Brc1ccccc1-c1c2c3[nH]c4ccccc4c3cc[n+]2cn1-c1ccccc1 [8aca, 1-(2-Bromophenyl)-2-phenyl-2,11-dihydroimidazo[1′,5′:1,2]pyrido[3,4-b]indol-4-ium chloride] | > 10 | 0.2 | 3.16
Fc1ccc(-n2c[n+]3ccc4c5ccccc5[nH]c4c3c2-c2ccccc2)cc1 [8aad, 2-(4-Fluorophenyl)-1-phenyl-2,11-dihydroimidazo[1′,5′:1,2]pyrido[3,4-b]indol-4-ium chloride] | > 10 | 0.269 | > 10
FC(F)(F)Oc1ccc(-n2c[n+]3ccc4c5ccccc5[nH]c4c3c2-c2ccc(Br)cc2)cc1 [8abh] | > 10 | > 10 | > 10
